Experimental data as given in patent US20070191292A1, “Antimycotic rhamnolipid compositions and related methods of use” (priority 2006, published 2007).
Like-named read-outs stand apart in the source and are kept apart here. Bridge positions count the residues as written; N and C are the ends. Square brackets hold non-standard residues; d marks the D form. Peptide text beside a SMILES is read from it. * marks the point of attachment. Asp(3S-OH) = N[C@H](C(=O)O)[C@H](O)C(=O)O; Thr(4-Cl) = N[C@H](C(=O)O)[C@H](O)CCl; X1 = CCCCCCCCC[C@@H](O)CC(=O)*; dDab = NCC[C@@H](N)C(=O)O; Dab = NCC[C@H](N)C(=O)O; Dhb = C/C=C(\N)C(=O)O

What was measured:
[1] = system: Saccharomyces cerevisiae SRE resistant mutant strains Δsmr1,Δsyr2,Δipt1, Δelo2,Δelo3,Δfah1; experiment: Replica plate growth inhibition, sphingolipid and sterol biosynthetic mutants; assay type: cell-based; conditions: parent strains 8A-1B, W303, BY4741
Description: To investigate the mechanism of action of SYRA, Saccharomyces cerevisiae sphingolipid and sterol biosynthetic mutants were used. Saccharomyces cerevisiae parent strains 8A-1B, W303, BY4741 and SRE resistant mutant strains Δsmr1,Δsyr2,Δipt1, Δelo2,Δelo3,Δfah1 were utilized, as described previously (Stock, S. D., H. Hama, J. A. Radding, D. A. Young, and J. Y. Takemoto. 2000. Syringomycin E inhibition of Saccharomyces cerevisiae: requirement for biosynthesis of sphingolipids with very-long-chain fatty acids and mannose- and phosphoinositol-containing head groups. Antimicrob. Agents Chemother. 44:1174-80.). For growth inhibition, a replica plate method was used (Hama, J., D. A. Young, J. A. Radding, D. Ma, J. Tang, S. D. Stock, and J. Y. Takemoto. 2000. Requirement of sphingolipid alpha-hydroxylation for fungicidal action of syringomycin E. FEBS Lett. 478:26-8). Fresh cells were replica plated onto yeast extract-peptone-dextrose (YPD) agar containing different concentrations of SYRA. Growth with and without SYRA addition were compared to determine relative sensitivity.

[2] = system: a variety of yeast and fungi; experiment: Antifungal activities against a variety of yeast and fungi (Table 1); assay type: cell-based; conditions: component alone; Tables 1 and 2
Description: (§1) The checkerboard method is used frequently to evaluate antimicrobial combinations in vitro (Lorian, V., M. D. 1996. Antibiotics in Laboratory Medicine, 4th ed.). The tests were easily performed at the laboratory level by using the microdilution method. The results obtained from this study provided a better understanding of the nature of the interaction between SRE and rhamnolipids.
The checkerboard method is described by Sabath et al. (Sabath, L. D. 1967. Synergy of antibacterial substances by apparently known mechanisms. Antimicrob. Agents Chemother. 7:210-7.) and Garrod et al. (Garrod L. P. and P. M. Waterworth. 1962. Methods of testing combined antibiotic bactericidal action and the significance of the results. J. Clin. Pathol. 15:328-38.). A 96-well plate was used to determine the fractional inhibitory concentrations (FICs). Serial twofold dilutions of SRE and rhamnolipids were prepared separately. […] The plate was incubated at 35° C. for 24-72 h. and the FICs were calculated using the equation: (A/MICa)+(B/MICb)=FICa+FICb=FIC index, where A and B are concentrations of SRE and rhamnolipids, MICa and MICb are the minimum inhibitory concentrations, and FICa and FICb are the fractional inhibitory concentrations of SRE and rhamnolipids, respectively. […]

Rhizopus stonifer = assay type: cell-based; conditions: SRE alone (0.5 mg/ml solution, diluted)
Description: as §1
(§2) The checkerboard method is described by Sabath et al. (Sabath, L. D. 1967. Synergy of antibacterial substances by apparently known mechanisms. Antimicrob. Agents Chemother. 7:210-7.) and Garrod et al. (Garrod L. P. and P. M. Waterworth. 1962. Methods of testing combined antibiotic bactericidal action and the significance of the results. J. Clin. Pathol. 15:328-38.). A 96-well plate was used to determine the fractional inhibitory concentrations (FICs). Serial twofold dilutions of SRE and rhamnolipids were prepared separately. Then 25 μl of different concentrations of syringomycin are added in a vertical orientation and the rhamnolipids were added in horizontal orientation. The final volume of the well contained 50 μl of the subject composition and 50 μl of the tested culture. The plate was incubated at 35° C. for 24-72 h. and the FICs were calculated using the equation: (A/MICa)+(B/MICb)=FICa+FICb=FIC index, where A and B are concentrations of SRE and rhamnolipids, MICa and MICb are the minimum inhibitory concentrations, and FICa and FICb are the fractional inhibitory concentrations of SRE and rhamnolipids, respectively.
(§3) SRE and Rh solutions were prepared, at the concentrations shown (mg/ml), then diluted and used to determine the minimum inhibitory concentration (MIC, μg/ml) of each, alone and in composition with the other (SYRA and SYRA2). […] Beneficial effects against the other organisms tested are evidenced by examination and analysis of the corresponding data.

Cladosporium sp = assay type: cell-based; conditions: SRE alone (0.5 mg/ml solution, diluted)
Description: as §1, §2, §3

Botrytis sp = assay type: cell-based; conditions: SRE alone (0.5 mg/ml solution, diluted)
Description: as §1, §2, §3

Penicillium sp2 = assay type: cell-based; conditions: SRE alone (0.5 mg/ml solution, diluted)
Description: as §1, §2, §3

Rhodotorula pilimanae = assay type: cell-based; conditions: SRE alone (0.5 mg/ml solution, diluted)
Description: as §1, §2, §3

Candida albicans = assay type: cell-based; conditions: SRE alone (0.5 mg/ml solution, diluted)
Description: as §1, §2, §3

Penicillium sp1 = assay type: cell-based; conditions: SRE alone (0.5 mg/ml solution, diluted)
Description: as §1, §2, §3

Rhizoctonia solani = assay type: cell-based; conditions: SRE alone (0.5 mg/ml solution, diluted)
Description: as §1, §2, §3

Fusarium oxysporum = assay type: cell-based; conditions: SRE alone (0.5 mg/ml solution, diluted)
Description: as §1, §2, §3

Aspergillus flavus = assay type: cell-based; conditions: SRE alone (0.5 mg/ml solution, diluted)
Description: as §1, §2, §3

R.pilimanae = assay type: cell-based, Rhodotorula pilimanae
Procedure: (§4) Disk diffusion methods similar to those described by the NCCLS protocols for antifungal testing (Washington, G. L. W. a. J. A. 1995. Antibacterial Susceptibility Tests: Dilution and Disk Diffusion Methods, p. 1327-1341. in P. R. Murray (ed.), Manual of Clinical Microbiology, sixth ed.) were used. FIGS. 2(A) through 2(D) illustrate typically observed result assessments for antimicrobial combinations using the disk diffusion method.
(§5) Tested fungi, utilized in the examples that follow, were grown in RPMI Medium and adjusted to 5×10^4 CFU/ml, and transferred onto solid agar medium of the appropriate growth medium. The cultures were spread over the surface as a thin film. Four millimeter-diameter sterilized paper disks were deposited on the surface and syringomycin E and rhamnolipids were applied on disk 1 and disk 2, respectively (in approximately about 7 to about 10 μl aliquots). The distance between the disks was equal to the sum of radii of zones of inhibition of the drugs applied alone. The plates were incubated at approximately 35° C. for approximately 24-72 h.
(§6) SYRA was obtained by mixing SRE and rhamnolipids at different relative concentrations. SYRA was tested against a variety of yeasts and fungi and the zone of inhibition was measured as described with reference to Examples 2A and 2B.

8A-1B = experiment: Disk diffusion, zone of inhibition; assay type: cell-based, Saccharomyces cerevisiae
Procedure: as §4, §5

W303C = experiment: Disk diffusion, zone of inhibition; assay type: cell-based, Saccharomyces cerevisiae
Procedure: as §4, §5

BY4741 = assay type: cell-based, Saccharomyces cerevisiae
Procedure: as §4, §5, §6

C/C=C1\NC(=O)[C@H](Cc2ccccc2)NC(=O)[C@H](CCCNC(=N)N)NC(=O)[C@H](CCN)NC(=O)[C@@H](CCN)NC(=O)[C@@H](CO)NC(=O)[C@@H](NC(=O)C[C@H](O)CCCCCCCCC)COC(=O)[C@H]([C@H](O)CCl)NC(=O)[C@H]([C@H](O)C(=O)O)NC1=O [SRE, Syringomycin E] (X1-S[dS][dDab][Dab]RF[Dhb][Asp(3S-OH)][Thr(4-Cl)]; ester 1-C)
growth inhibitory activity in mutants compared to wild type [1]: less in the mutants as compared to the wild type | antifungal activities, alone [2]: strong activity | MIC (Rhizopus stonifer): 7.8 µg/mL | MIC (Cladosporium sp): 3.9 µg/mL | MIC (Botrytis sp): 3.9 µg/mL | MIC (Penicillium sp2): 7.8 µg/mL | MIC (Rhodotorula pilimanae): 3.9 µg/mL | MIC (Candida albicans): 3.9 µg/mL | MIC (Penicillium sp1): 7.8 µg/mL | MIC (Rhizoctonia solani): 3.9 µg/mL | MIC (Fusarium oxysporum): 7.8 µg/mL | MIC (Aspergillus flavus): 7.8 µg/mL | Zone of Inhibition (R.pilimanae; SRE alone 2.4 mg/ml): 19.0 mm | Zone of Inhibition (R.pilimanae; SRE alone 5.6 mg/ml): 21.5 mm | Zone of Inhibition (R.pilimanae; SRE alone 10.3 mg/ml): 23.0 mm | Zone of Inhibition (8A-1B; SRE alone 2.4 mg/ml): 17.5 mm | Zone of Inhibition (8A-1B; SRE alone 5.6 mg/ml): 19.0 mm | Zone of Inhibition (8A-1B; SRE alone 10.3 mg/ml): 20.0 mm | Zone of Inhibition (W303C; SRE alone 2.4 mg/ml): 26.0 mm | Zone of Inhibition (W303C; SRE alone 5.6 mg/ml): 28.0 mm | Zone of Inhibition (W303C; SRE alone 10.3 mg/ml): 29.0 mm | Zone of Inhibition (BY4741; SRE alone 2.4 mg/ml): 19.0 mm | Zone of Inhibition (BY4741; SRE alone 5.6 mg/ml): 21.0 mm | Zone of Inhibition (BY4741; SRE alone 10.3 mg/ml): 23.0 mm
